Test results as given in US20090239841A1, “Diaryl Ureas as CB1 Antagonists” (priority 2004, published 2009).

biological target: T1, hCB1 (Homo sapiens, UniProt P21554); assay: Agonist-induced GTP binding (GTPγ35S) assay at CB1, Example 8; assay type: biochemical; details: IC50 at CB1, determined as described in Example 8; read-out: IC50
T1 construct: made in house; host or cells: Sf9 insect cells (baculovirus), P2 membranes
Description: As noted above, compounds provided herein are CB1 antagonists. Certain such compounds are non-competitive CB1 antagonists. In addition, or alternatively, certain compounds provided herein display CB1 specificity. CB1 antagonist activity may be confirmed using an agonist-induced GTP binding assay, such as the assay described in Example 8. Such assays employ a CB1-containing cell membrane preparation (e.g., a preparation of membranes of insect cells that recombinantly express CB1) to determine the effect of a test compound on CB1 agonist-induced GTP binding to CB1. Briefly, a first cell membrane preparation comprising CB1 is contacted with: (i) labeled GTP; (ii) a CB1 agonist; and (iii) a test compound to yield a test membrane preparation. Simultaneously, or in either order, a second cell membrane preparation comprising CB1 is contacted with: (i) labeled GTP; and (ii) a CB1 agonist to yield a control membrane preparation. The labeled GTP is preferably GTPγ^35S; a representative CB1 agonist is CP55,940. Such contact is performed under conditions that are suitable for GTP binding to CB1, such as the conditions described in Example 8. The concentrations of labeled GTP and CB1 agonist used are generally concentrations that are sufficient to result in a detectable increase in the amount of labeled GTP bound to the membrane preparation in the presence of CB1 agonist. Such concentrations may be determined by routine experimentation; representative suitable concentrations are provided in Example 8. Generally, a range of test compound concentrations is used (e.g., ranging from 10^−10M to 10^−5M).
After sufficient contact (e.g., incubation) to allow GTP binding to the membrane preparations, a signal that corresponds to (represents) the amount of bound, labeled GTP is detected (typically, unbound labeled GTP is first removed via a washing step). In other words, simultaneously or in either order: (i) a test signal that represents an amount of bound, labeled GTP in the test membrane preparation is detected; and (ii) a control signal that represents an amount of bound, labeled GTP in the control membrane preparation is detected. The nature of the signal detected is determined by the type of label used. For example, if the GTP is radioactively labeled, the signal detected is radioactive decay (e.g., via liquid scintillation spectrometry). The CB1 antagonist activity of the test compound is then determined by comparing the test signal with the control signal.
This assay can also be used to detect partial agonism mediated by antagonist compounds. A compound being analyzed in this assay is referred to herein as a “test compound.” Agonist-stimulated GTP binding activity is measured as follows: Four independent baculoviral stocks (one directing the expression of hCB1 and three directing the expression of each of the three subunits of a heterotrimeric G-protein) are used to infect a culture of Sf9 cells as described in Example 5.
Agonist-stimulated GTP binding on purified membranes (as described in Example 6) is initially assessed using the cannabinoid agonist CP55,940 to ascertain that the receptor/G-protein-alpha-beta-gamma combination(s) yield a functional response as measured by GTP binding.
P2 membranes are resuspended by Dounce homogenization (tight pestle) in GTP binding assay buffer (50 mM Tris pH 7.4, 120 mM NaCl, 5 mM MgCl2, 2 mM EGTA, 0.1% BSA, 0.1 mM bacitracin, 10 KIU/mL aprotinin, 5 μM GDP) and added to reaction tubes at a concentration of 10 μg protein/reaction tube. After adding increasing doses of the agonist CP55,940 at concentrations ranging from 10^−12 M to 10^−6 M, reactions are initiated by the addition of […] GTPγ^35S. In competition experiments, non-radiolabeled test compounds are added to separate assays at concentrations ranging from 10^−10 M to 10^−5 M along with 1 nM CP55,940 to yield a final volume of 0.25 mL. […]

T1 sequence (P21554 whole entry): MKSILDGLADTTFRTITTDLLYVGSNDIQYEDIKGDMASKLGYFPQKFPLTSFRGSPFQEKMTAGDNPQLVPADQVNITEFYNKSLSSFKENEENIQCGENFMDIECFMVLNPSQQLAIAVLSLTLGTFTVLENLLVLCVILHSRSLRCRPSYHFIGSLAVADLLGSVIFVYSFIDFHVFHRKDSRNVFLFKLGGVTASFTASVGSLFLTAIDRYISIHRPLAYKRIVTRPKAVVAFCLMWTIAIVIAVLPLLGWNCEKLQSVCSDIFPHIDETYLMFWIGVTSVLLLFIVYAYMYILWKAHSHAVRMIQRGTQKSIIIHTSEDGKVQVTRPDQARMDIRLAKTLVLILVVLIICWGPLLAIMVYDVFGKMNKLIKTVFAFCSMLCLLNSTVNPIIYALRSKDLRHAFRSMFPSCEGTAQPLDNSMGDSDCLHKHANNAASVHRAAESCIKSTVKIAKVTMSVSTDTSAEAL

IC50, < 2 µM:
COCc1ccc(NC(=O)Nc2cccc(Cl)c2)cc1 [Compound 394, 1-(3-chlorophenyl)-3-[4-(methoxymethyl)phenyl]urea]
Cc1ccc(F)cc1NC(=O)Nc1ccc(OC(C)C)cc1 [Compound 698, 1-(5-fluoro-2-methylphenyl)-3-(4-isopropoxyphenyl)urea]
CCOC(=O)c1ccc(NC(=O)Nc2cccc(OC)c2)cc1 [Compound 593, ethyl 4-({[(3-methoxyphenyl)amino]carbonyl}amino)benzoate]
CCC(=O)c1ccc(NC(=O)Nc2ccc(C)cc2)cc1 [Compound 469, 1-(4-methylphenyl)-3-(4-propionylphenyl)urea]
CCOc1cccc(NC(=O)Nc2ccccc2)c1 [Compound 374, 1-(3-ethoxyphenyl)-3-phenylurea]
CCOC(=O)c1ccc(NC(=O)Nc2ccc(F)c(F)c2)cc1 [Compound 739, ethyl 4-({[(3,4-difluorophenyl)amino]carbonyl}amino)benzoate]
NC(=O)CN1CCN(S(=O)(=O)c2ccc(NC(=O)Nc3cccc(OC(F)F)c3)cc2)CC1 [Compound 793, 2-[4-({4-[({[3-(difluoromethoxy)phenyl]amino}carbonyl)amino]phenyl}sulfonyl)-1-piperazinyl] acetamide]
CCOc1cccc(NC(=O)Nc2ccc(F)c(C)c2)c1 [Compound 682, 1-(3-ethoxyphenyl)-3-(4-fluoro-3-methylphenyl)urea]
COc1cccc(NC(=O)Nc2ccc(OCC#N)cc2)c1 [Compound 588, 1-[4-(cyanomethoxy)phenyl]-3-(3-methoxyphenyl)urea]
COc1ccc(NC(=O)Nc2ccc(OC(F)F)cc2)cc1 [Compound 530, 1-[4-(difluoromethoxy)phenyl]-3-(4-methoxyphenyl)urea]
CC(=O)c1cccc(NC(=O)Nc2ccc(C(=O)OC(C)C)cc2)c1 [Compound 513, isopropyl 4-({[(3-acetylphenyl)amino]carbonyl}amino)benzoate]
CCOC(=O)c1cccc(NC(=O)Nc2ccc(C(=O)OC(C)C)cc2)c1 [Compound 725, ethyl 3-[({[4-(isopropoxycarbonyl)phenyl]amino}carbonyl)amino] benzoate]
CCOC(=O)c1ccc(NC(=O)Nc2ccc(OC(C)C)cc2)cc1 [Compound 675, ethyl 4-({[(4-isopropoxyphenyl)amino]carbonyl}amino)benzoate]
CC(C)Oc1cccc(NC(=O)Nc2ccc(OC(F)(F)F)cc2)c1 [Compound 536, 1-(3-isopropoxyphenyl)-3-[4-(trifluoromethoxy)phenyl]urea]
CCc1ccc(NC(=O)Nc2ccc(C)c(Cl)c2)cc1 [Compound 444, 1-(3-chloro-4-methylphenyl)-3-(4-ethylphenyl)urea]
Cc1ccc(NC(=O)Nc2ccc(Cl)cc2)cc1Cl [Compound 445, 1-(3-chloro-4-methylphenyl)-3-(4-chlorophenyl)urea]
CCOc1ccc(NC(=O)Nc2cccc(C(=O)OC)c2)cc1 [Compound 663, methyl 3-({[(4-ethoxyphenyl)amino]carbonyl}amino)benzoate]
CCC(=O)c1ccc(NC(=O)Nc2ccc(C)c(F)c2)cc1 [Compound 734, 1-(3-fluoro-4-methylphenyl)-3-(4-propionylphenyl)urea]
CCCOc1ccc(NC(=O)Nc2ccccc2)cc1 [Compound 303, N-phenyl-N′-(4-propoxyphenyl)urea]
CCCOc1ccc(NC(=O)Nc2ccc(OC(F)(F)F)cc2)cc1 [Compound 535, 1-(4-propoxyphenyl)-3-[4-(trifluoromethoxy)phenyl]urea]
CCOc1cccc(NC(=O)Nc2ccc(OC)cc2)c1 [Compound 542, 1-(3-ethoxyphenyl)-3-(4-methoxyphenyl)urea]
Cc1ccc(NC(=O)Nc2cccc(OC(F)F)c2)cc1 [Compound 370, 1-[3-(difluoromethoxy)phenyl]-3-(4-methylphenyl)urea]
COCc1ccc(NC(=O)Nc2ccc(C)cc2)cc1 [Compound 359, 1-[4-(methoxymethyl)phenyl]-3-(4-methylphenyl)urea]
COc1cccc(NC(=O)Nc2ccc(C(=O)OC(C)C)cc2)c1 [Compound 597, isopropyl 4-({[(3-methoxyphenyl)amino]carbonyl}amino)benzoate]

same assay, conditions: Table I; IC50 at CB1, GTP binding with 1 nM CP55,940; read-out: IC50

IC50, < 2 µM:
CCc1ccc(NC(=O)Nc2ccc(Cl)cc2)cc1 [Compound 25, N-(4-chlorophenyl)-N′-(4-ethylphenyl)urea]

same assay, conditions: Table II; IC50 at CB1, GTP binding with 1 nM CP55,940; read-out: IC50

IC50, < 2 µM:
CCOc1cccc(NC(=O)Nc2ccc(F)cc2)c1 [Compound 204, N-(3-ethoxyphenyl)-N′-(4-fluorophenyl)urea]
Cc1cccc(NC(=O)Nc2cccc(-c3ccnc(C)n3)c2)c1 [Compound 163, N-(3-methylphenyl)-N′-[3-(2-methylpyrimidin-4-yl)phenyl]urea]
Cc1ccc(NC(=O)Nc2ccc(N3CCCCC3)cc2)cc1 [Compound 169, N-(4-methylphenyl)-N′-(4-piperidin-1-ylphenyl)urea]
CC(C)c1ccc(NC(=O)Nc2ccc(F)cc2)cc1 [Compound 176, N-(4-fluorophenyl)-N′-(4-isopropylphenyl)urea]
O=C(Nc1ccc(COc2ccccc2)cc1)Nc1ccc(OC(F)F)cc1 [Compound 102, N-[4-(dif1uoromethoxy)phenyl]-N′-[4-(phenoxymethyl)phenyl]urea]
COc1cc(NC(=O)Nc2ccc(OC(F)(F)F)cc2)ccc1OC(F)F [Compound 100, N-[4-(difluoromethoxy)-3-methoxyphenyl]-N′-[4-(trifluoromethoxy)phenyl]urea]
Cc1ccc(NC(=O)Nc2ccc(C)c(F)c2)cc1 [Compound 160, N-(3-fluoro-4-methylphenyl)-N′-(4-methylphenyl)urea]
O=C(Nc1ccc(OC(F)F)cc1)Nc1ccc(S(=O)(=O)N2CCCCC2)cc1 [Compound 110, N-[4-(difluoromethoxy)phenyl]-N′-[4-(piperidin-1-ylsulfonyl)phenyl]urea]
CCCOc1ccc(NC(=O)Nc2ccc(F)cc2)cc1 [Compound 210, N-(4-fluorophenyl)-N′-(4-propoxyphenyl)urea]
CCCc1ccc(NC(=O)Nc2cccc(C)c2)cc1 [Compound 154, N-(3-methylphenyl)-N′-(4-propylphenyl)urea]
COc1ncc(C(F)(F)F)c(-c2cccc(NC(=O)Nc3ccc(OC(F)F)cc3)c2)n1 [Compound 119, N-[4-(difluoromethoxy)phenyl]-N′-{3-[2-methoxy-5-(trifluoromethyl)pyrimidin-4-yl]phenyl}urea]
COc1cc(NC(=O)Nc2ccc(OC(F)F)cc2)cc(OC)c1 [Compound 91, N-[4-(difluoromethoxy)phenyl]-N′-(3,5-dimethoxyphenyl)urea]
Cc1cc(-c2cccc(NC(=O)Nc3cccc(OC(F)F)c3)c2)cc(C)n1 [Compound 147]
O=C(Nc1ccc(OC(F)F)cc1)Nc1cccc(Oc2ccccc2)c1 [Compound 85, N-[4-(difluoromethoxy)phenyl]-N′-(3-phenoxyphenyl)urea]
CC(C)Oc1ccc(NC(=O)Nc2ccccc2)cc1 [Compound 224, N-(4-isopropoxyphenyl)-N′-phenylurea]
